Experimental data: patent US20260109721A1, “IONIZABLE CATIONIC LIPIDS INCORPORATING SILICON: SYNTHESIS AND LNP FORMULATION” (priority 2023, published 2026)
Like-named read-outs stand apart in the source and are kept apart here.

Tests used:
[1] = tested on: HeLa cells; assay: Transfection efficiency with Luciferase (SecNLuc) mRNA, Nano-Glo assay (Method A); format: cell-based; conditions: Luc mRNA, 24 h, luminescence; for Transfection 10 ng mRNA: 10 ng mRNA/well; for Transfection 50 ng mRNA: 50 ng mRNA/well; for Transfection 100 ng mRNA: 100 ng mRNA/well
Procedure, shortened: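 Luminescence from secreted NanoLuc, read with Nano-Glo reagent, gave transfection efficiency 24 h after HeLa cells were dosed. Method A lipid nanoparticles delivered SecNLuc mRNA at 10, 50 or 100 ng per well in triplicate.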

[2] = tested on: HeLa cells; assay: Cell viability assessment with resazurin assay (Method A); format: cell-based; conditions: human
Procedure, shortened: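 Viability is given as percent of control metabolic activity: background-corrected resorufin fluorescence (ex 540, em 610 nm), with OptiMEM-only wells set to 100%. Resazurin at 0.025 mg/ml in DMEM/F12 with 10% FCS was applied to LNP-transfected HeLa cells for 50 min at 37 °C.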

[3] = tested on: HepG2 cell line; assay: In vitro toxicity study on HepG2 cell line (resazurin, viability and IC50); format: cell-based, human; conditions: for Viability (%) at different lipid concentrations, mean: HepG2 cells, 48 h post-treatment, relative to ethanol vehicle controls; for IC50: Homo sapiens, read-out: IC50 value, μM (on HepG2 cell)
Procedure, shortened: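 Resazurin read-out (ex 530/em 580 nm, 5 h at 37 °C) measured lipid toxicity 48 h after dosing HepG2 cells (1000/well) at 6.25–800 μM. Viability was normalised to ethanol vehicle, and IC50 was derived from concentration-response curves.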

[4] = lipid toxicity, HepG2, 48 h post-treatment, resazurin, 6.25-800 μM

Compound | Transfection 10 ng mRNA [1] | Transfection 50 ng mRNA [1] | Transfection 100 ng mRNA [1] | Cell Viability % (Average metabolic rate over all doses, Resazurin) [2] | Viability (%) at different lipid concentrations, mean ([3]; 6.25 μM lipid, resazurin) | Viability (%) at different lipid concentrations, mean ([3]; 12.5 μM lipid, resazurin) | Viability (%) at different lipid concentrations, mean ([3]; 25 μM lipid, resazurin) | Viability (%) at different lipid concentrations, mean ([3]; 50 μM lipid, resazurin) | Viability (%) at different lipid concentrations, mean ([3]; 100 μM lipid, resazurin) | Viability (%) at different lipid concentrations, mean ([3]; 200 μM lipid, resazurin) | Viability (%) at different lipid concentrations, mean ([3]; 400 μM lipid, resazurin) | Viability (%) at different lipid concentrations, mean ([3]; 800 μM lipid, resazurin) | IC50 [3, 4] | IC50 ([3]; HepG2, 48 h)
CCCCC/C=C\C/C=C\CCCCCCCCOC(CC[C@@H](C)C1CCC2C3CCC4C[C@H](OC)CC[C@]4(C)C3CC[C@@]21C)O[Si](C)(C)OCCCCCCN(CCO)CCO (stereo partly drawn) [Example 52, (23Z,26Z)-3-(2-hydroxyethyl)-13-((3R)-3-((3R,10S,13R)-3-methoxy-10,13-dimethylhexadecahydro-1H-cyclopenta[a]phenanthren-17-yl)butyl)-11,11-dimethyl-10,12,14-trioxa-3-aza-11-siladotriaconta-23,26-dien-1-ol] | 1.02E+05 | 1.65E+06 | 9.16E+06 | 95% | 101.2% | 101.1% | 104.2% | 120.8% | 112.2% | 76.7% | 5.3% | −0.7% | 233 µM | 
CCCCC/C=C\C/C=C\CCCCCCCCOC(CCCCCCC/C=C\C/C=C\CCCCC)O[Si](C)(C)OCCCCCCN1CCOCC1 (stereo not drawn) [Example 55, 4-((20Z,23Z)-10-((8Z,11Z)-heptadeca-8,11-dien-1-yl)-8,8-dimethyl-7,9,11-trioxa-8-silanonacosa-20,23-dien-1-yl)morpholine] | 1.32E+06 | 7.68E+06 | 1.03E+07 | 91% | 91.7% | 90.4% | 92.4% | 90.9% | 94.1% | 90.7% | 7.9% | 1.9% | 316 µM | 
CCCCC/C=C\C/C=C\CCCCCCCCOC(CCCCCCC/C=C\C/C=C\CCCCC)O[Si](C)(C)OCCCCCCN(C)CCO (stereo not drawn) [Example 56, (23Z,26Z)-13-((8Z,11Z)-heptadeca-8,11-dien-1-yl)-3,11,11-trimethyl-10,12,14-trioxa-3-aza-11-siladotriaconta-23,26-dien-1-ol] | 3.00E+00 | 5.63E+01 | 6.90E+01 | 93% | 96.7% | 94.6% | 96.5% | 94.8% | 99.7% | 100.1% | 89.5% | 36.9% | 714 µM | 
CCCCC/C=C\C/C=C\CCCCCCCCOC(CCCCCCC/C=C\C/C=C\CCCCC)O[Si](C)(C)OCCCCCCN1CCCCC1 (stereo not drawn) [Example 57, 1-((20Z,23Z)-10-((8Z,11Z)-heptadeca-8,11-dien-1-yl)-8,8-dimethyl-7,9,11-trioxa-8-silanonacosa-20,23-dien-1-yl)piperidine] | 9.82E+04 | 1.48E+06 | 5.16E+06 | 99% | 97.2% | 93.7% | 93.2% | 94.3% | 90.5% | 86.9% | 47.6% | 4.6% |  | 401 µM
CCCCC/C=C\C/C=C\CCCCCCCCOC(CCCCCCC/C=C\C/C=C\CCCCC)O[Si](C)(C)OCCCCCCN1CCN(CCO)CC1 (stereo not drawn) [Example 58, 2-(4-((20Z,23Z)-10-((8Z,11Z)-heptadeca-8,11-dien-1-yl)-8,8-dimethyl-7,9,11-trioxa-8-silanonacosa-20,23-dien-1-yl)piperazin-1-yl)ethan-1-ol] | 3.85E+02 | 3.92E+03 | 7.51E+03 | 97% | 104.2% | 97.0% | 102.1% | 101.2% | 104.1% | 101.6% | 40.3% | 3.8% | 375 µM | 
CCCCC/C=C\C/C=C\CCCCCCCCOC(CCCCCCC/C=C\C/C=C\CCCCC)O[Si](C)(C)OCCCCCCN(C)CC(O)CO (stereo not drawn) [Example 59, (24Z,27Z)-14-((8Z,11Z)-heptadeca-8,11-dien-1-yl)-4,12,12-trimethyl-11,13,15-trioxa-4-aza-12-silatritriaconta-24,27-diene-1,2-diol] | 9.07E+03 | 2.41E+05 | 5.66E+05 | 90% | 97.3% | 100.1% | 112.6% | 112.9% | 76.9% | 29.0% | 18.1% | 8.3% | 149 µM | 
CCCCC/C=C\C/C=C\CCCCCCCCOC(CCCCCCC/C=C\C/C=C\CCCCC)O[Si](C)(C)OCCCCCCN(C)CCCCO (stereo not drawn) [Example 60, (25Z,28Z)-15-((8Z,11Z)-heptadeca-8,11-dien-1-yl)-5,13,13-trimethyl-12,14,16-trioxa-5-aza-13-silatetratriaconta-25,28-dien-1-ol] | 1.76E+05 | 1.12E+06 | 1.81E+06 | 88% | 100.0% | 99.3% | 98.4% | 107.2% | 117.1% | 101.1% | 73.6% | 35.2% | 310 µM | 
CCCCC/C=C\C/C=C\CCCCCCCCOC(CCCCCCC/C=C\C/C=C\CCCCC)O[Si](C)(C)OCCCCCCN(CCCCO)CCCCO (stereo not drawn) [Example 62, (25Z,28Z)-15-((8Z,11Z)-heptadeca-8,11-dien-1-yl)-5-(4-hydroxybutyl)-13,13-dimethyl-12,14,16-trioxa-5-aza-13-silatetratriaconta-25,28-dien-1-ol] | 1.95E+05 | 8.70E+05 | 1.68E+06 | 89% | 100.4% | 110.2% | 122.5% | 116.9% | 68.2% | 13.2% | −0.6% | −0.7% | 113 µM | 
CCCCC/C=C\C/C=C\CCCCCCCCOC(CCCCCCC/C=C\C/C=C\CCCCC)O[Si](C)(C)OCCCCCCN1CCCCC1CO (stereo not drawn) [Example 64, (1-((20Z,23Z)-10-((8Z,11Z)-heptadeca-8,11-dien-1-yl)-8,8-dimethyl-7,9,11-trioxa-8-silanonacosa-20,23-dien-1-yl)piperidin-2-yl)methanol] | 3.40E+05 | 1.89E+06 | 3.78E+06 | 100% | 99.5% | 98.7% | 100.3% | 97.8% | 97.8% | 91.7% | 80.3% | 47.4% | 775 µM | 
